Source: US12281122B1, “PI3K inhibitors” (Cogent Biosciences, Inc., priority 2023, dated 2025)

Legend:
[1] = tested on: T47D (PI3Kα-H1047R) cell line; experiment: HTRF phospho-AKT(S473) cell assay in T47D cells; assay type: cell-based, human; conditions: Homo sapiens; T47D (PI3Kα-H1047R) cells, HTRF phospho-AKT(S473), 2 hours compound incubation
Procedure, shortened: (§1)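 T47D (PI3Kα-H1047R; RPMI, 10% FBS, insulin) and SKBR3 (wild-type PI3Kα; McCoy's 5A, 10% FBS) cells treated 2 h at 37 °C with 12-point 1:3 dilutions, top 5 μM and 10 μM respectively, ≤0.5% DMSO. SKBR3 stimulated with 70 ng/ml PDGF-BB for the last 15 min; lysate pAKT(S473) by HTRF, IC50 from curves.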

PI3Kα = PI3Kα (Homo sapiens, UniProt P42336); experiment: PI3Kα enzyme assay (Transcreener ADP2 TR-FRET Red Assay); assay type: biochemical; conditions: purified recombinant full-length protein; 2 hours pre-incubation with compound; read-out: PI3Kα WT IC50
Sequence of PI3Kα (P42336 whole entry): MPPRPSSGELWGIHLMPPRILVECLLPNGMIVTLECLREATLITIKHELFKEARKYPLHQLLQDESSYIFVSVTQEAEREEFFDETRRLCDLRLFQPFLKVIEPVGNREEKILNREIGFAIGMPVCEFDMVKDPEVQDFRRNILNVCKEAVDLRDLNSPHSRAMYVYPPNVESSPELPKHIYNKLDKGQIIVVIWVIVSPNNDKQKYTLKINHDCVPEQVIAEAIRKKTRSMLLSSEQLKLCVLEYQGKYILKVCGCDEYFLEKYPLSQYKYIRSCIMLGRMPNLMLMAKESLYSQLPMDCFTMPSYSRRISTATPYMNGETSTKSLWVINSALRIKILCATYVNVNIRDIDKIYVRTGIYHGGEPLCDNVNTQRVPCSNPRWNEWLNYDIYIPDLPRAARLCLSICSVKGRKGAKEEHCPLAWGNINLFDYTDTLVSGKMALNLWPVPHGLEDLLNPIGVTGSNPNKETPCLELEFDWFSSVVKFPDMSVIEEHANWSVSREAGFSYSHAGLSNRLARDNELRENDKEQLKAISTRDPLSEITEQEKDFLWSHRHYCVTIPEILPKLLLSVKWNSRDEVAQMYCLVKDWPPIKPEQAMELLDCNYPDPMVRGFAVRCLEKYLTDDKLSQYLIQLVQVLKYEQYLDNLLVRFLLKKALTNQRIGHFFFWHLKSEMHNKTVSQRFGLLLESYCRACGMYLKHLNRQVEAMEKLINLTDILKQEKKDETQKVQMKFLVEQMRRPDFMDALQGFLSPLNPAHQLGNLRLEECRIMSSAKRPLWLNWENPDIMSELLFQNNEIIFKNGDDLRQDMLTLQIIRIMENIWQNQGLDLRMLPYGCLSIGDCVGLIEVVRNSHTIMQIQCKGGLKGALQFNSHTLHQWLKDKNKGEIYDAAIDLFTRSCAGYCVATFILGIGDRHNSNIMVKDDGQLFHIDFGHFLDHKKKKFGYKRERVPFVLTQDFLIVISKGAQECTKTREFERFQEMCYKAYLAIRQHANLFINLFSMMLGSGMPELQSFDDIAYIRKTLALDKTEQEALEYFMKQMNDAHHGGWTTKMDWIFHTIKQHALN
Sequence of PI3Kα (P27986 2-724 partner): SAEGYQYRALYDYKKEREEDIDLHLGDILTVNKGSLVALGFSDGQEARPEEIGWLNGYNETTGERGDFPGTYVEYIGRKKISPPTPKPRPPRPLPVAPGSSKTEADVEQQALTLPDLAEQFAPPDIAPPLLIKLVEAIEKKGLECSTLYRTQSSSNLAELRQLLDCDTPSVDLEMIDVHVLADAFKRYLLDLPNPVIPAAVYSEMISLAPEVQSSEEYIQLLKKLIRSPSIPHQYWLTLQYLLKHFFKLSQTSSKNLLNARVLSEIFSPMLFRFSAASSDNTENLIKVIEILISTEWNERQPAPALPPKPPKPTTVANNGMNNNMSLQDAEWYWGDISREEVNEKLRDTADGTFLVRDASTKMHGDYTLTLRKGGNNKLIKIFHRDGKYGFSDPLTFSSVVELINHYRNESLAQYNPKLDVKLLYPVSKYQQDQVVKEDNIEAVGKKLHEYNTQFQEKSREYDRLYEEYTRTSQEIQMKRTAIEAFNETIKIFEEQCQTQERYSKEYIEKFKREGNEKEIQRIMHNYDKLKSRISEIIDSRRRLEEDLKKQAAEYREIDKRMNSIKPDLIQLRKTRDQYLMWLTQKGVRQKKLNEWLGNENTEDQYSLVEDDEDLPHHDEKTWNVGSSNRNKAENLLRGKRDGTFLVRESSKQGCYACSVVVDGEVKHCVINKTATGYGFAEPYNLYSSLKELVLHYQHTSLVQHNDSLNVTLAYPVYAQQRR
Procedure, shortened: (§2)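 Purified recombinant full-length enzymes pre-incubated 2 h at room temperature with compounds (11-point 1:3 dilutions, typically 50,000–0.85 nM), then started with ATP/PI(4,5)P2 diC8 and run 60 min at room temperature in 40 mM HEPES pH 7.5, 20 mM NaCl, 25 mM MgCl2, 0.01% Triton X-100. ADP detected by TR-FRET 665/615 ratio; IC50 from four-parameter fit of percent of control.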

[2] = tested on: SKBR3 (PI3Kα-Wild Type) cell line; experiment: HTRF phospho-AKT(S473) cell assay in SKBR3 cells; assay type: cell-based, human; conditions: Homo sapiens, SK-BR-3; SKBR3 (PI3Kα-Wild Type) cells, HTRF phospho-AKT(S473), 2 hours compound incubation, PDGF-BB stimulated
Procedure, shortened: as §1

PI3Kα H1047R = PI3Kα H1047R (Homo sapiens, UniProt P42336, H1047R); experiment: PI3Kα H1047R enzyme assay (Transcreener ADP2 TR-FRET Red Assay); assay type: biochemical; conditions: purified recombinant full-length protein; 2 hours pre-incubation with compound
Sequence of PI3Kα H1047R (P42336 whole entry H1047R): as the sequence (P42336 whole entry) above, with H1047R counted along it
Sequence of PI3Kα H1047R (P27986 2-724 partner): as the sequence (P27986 2-724 partner) above
Procedure, shortened: as §2

Compound	IC50 [1] [µM]	IC50 (PI3Kα) [µM]	IC50 [2] [µM]	IC50 (PI3Kα H1047R) [µM]
C[C@@H](Nc1cccnc1C(=O)NS(C)(=O)=O)c1cc(F)cc2c(=O)n(C)c(N3Cc4ccc(F)cc4C3)nc12 [Compound 60, (R)-3-((1-(6-fluoro-2-(5-fluoro-isoindolin-2-yl)-3-methyl-4-oxo-3,4-dihydroquinazolin-8-yl)ethyl)amino)-N-(methylsulfonyl) picolinamide]	1 to 5	≥ 1	1 to 5	≥ 1
Cc1cc([C@@H](C)Nc2ccc(Cl)nc2C(=O)NS(C)(=O)=O)c2nc(N3CCC4(CCOCC4)C3)n(C)c(=O)c2c1 [Compound 33, (R)-6-chloro-3-((1-(3,6-dimethyl-4-oxo-2-(8-oxa-2-azaspiro[4.5]decan-2-yl)-3,4-dihydroquinazolin-8-yl)ethyl)amino)-N-(methylsulfonyl) picolinamide]	0.25 to 0.5	≥ 1	1 to 5	0.25 to 0.5
C[C@@H](Nc1ccc(Cl)nc1C(=O)NS(C)(=O)=O)c1cc(F)cc2c(=O)n(C)c(-c3cccc(F)c3F)nc12 [Compound 87, (R)-6-chloro-3-((1-(2-(2,3-difluorophenyl)-6-fluoro-3-methyl-4-oxo-3,4-dihydroquinazolin-8-yl)ethyl)amino)-N-(methylsulfonyl) picolinamide]	1 to 5	≥ 1	≥ 5	≥ 1
Cc1cc([C@@H](C)Nc2cc(F)cnc2C(=O)NS(C)(=O)=O)c2nc(N3Cc4ccc(F)cc4C3)n(C)c(=O)c2c1 [Compound 68, (R)-5-fluoro-3-((1-(2-(5-fluoro-isoindolin-2-yl)-3,6-dimethyl-4-oxo-3,4-dihydroquinazolin-8-yl)ethyl)amino)-N-(methylsulfonyl) picolinamide]	1 to 5	≥ 1	≥ 5	≥ 1
Cc1cc([C@@H](C)Nc2ccc(Cl)nc2C(=O)NS(C)(=O)=O)c2nc(NCC3CC(F)(F)C3)n(C)c(=O)c2c1 [Compound 20, (R)-6-chloro-3-((1-(2-(((3,3-difluorocyclobutyl)methyl)amino)-3,6-dimethyl-4-oxo-3,4-dihydroquinazolin-8-yl)ethyl)amino)-N-(methylsulfonyl) picolinamide]	0.5 to 1	≥ 1	1 to 5	≥ 1
C[C@@H](Nc1ccc(Cl)[nH]c1=O)c1cc(F)cc2c(=O)n(C)c(N3Cc4ccc(F)cc4C3)nc12 [Compound 99, (R)-8-(1-((6-chloro-2-oxo-1,2-dihydropyridin-3-yl)amino)ethyl)-6-fluoro-2-(5-fluoroisoindolin-2-yl)-3-methylquinazolin-4(3H)-one]	0.5 to 1	≥ 1	≥ 5	0.1 to 0.25
Cc1cc([C@@H](C)Nc2ccc(Cl)nc2C(=O)NS(C)(=O)=O)c2nc(N3CCOC[C@H]3C)n(C)c(=O)c2c1 [Compound 55, 6-chloro-3-(((R)-1-(3,6-dimethyl-2-((R)-3-methylmorpholino)-4-oxo-3,4-dihydroquinazolin-8-yl)ethyl)amino)-N-(methylsulfonyl) picolinamide]	< 0.25	≥ 1	1 to 5	0.5 to 1
C[C@@H](Nc1ccc(Cl)nc1C(=O)NS(C)(=O)=O)c1cc(F)cc2c(=O)n(C)c(N3Cc4cnn(C)c4C3)nc12 [Compound 28, (R)-6-chloro-3-((1-(6-fluoro-3-methyl-2-(1-methyl-4,6-dihydropyrrolo[3,4-c]pyrazol-5(1H)-yl)-4-oxo-3,4-dihydroquinazolin-8-yl)ethyl)amino)-N-(methylsulfonyl) picolinamide]	< 0.25	≥ 1	1 to 5	0.5 to 1
Cc1cc([C@@H](C)Nc2ccc(Cl)nc2C(=O)NS(C)(=O)=O)c2nc(N3C[C@H]4C[C@@H]3CO4)n(C)c(=O)c2c1 [Compound 26, 3-(((R)-1-(2-((1R,4R)-2-oxa-5-azabicyclo[2.2.1]heptan-5-yl)-3,6-dimethyl-4-oxo-3,4-dihydroquinazolin-8-yl)ethyl)amino)-6-chloro-N-(methylsulfonyl) picolinamide]	< 0.25	≥ 1	1 to 5	0.5 to 1
Cc1cc([C@@H](C)Nc2ccc(Cl)nc2C(=O)NS(C)(=O)=O)c2nc(N3CCC3)n(C)c(=O)c2c1 [Compound 15]	0.25 to 0.5	≥ 1	1 to 5	0.25 to 0.5
Cc1cc([C@@H](C)Nc2ccc(Cl)nc2C(=O)NS(C)(=O)=O)c2nc(NCC3(C(F)(F)F)CC3)n(C)c(=O)c2c1 [Compound 24, (R)-6-chloro-3-((1-(3,6-dimethyl-4-oxo-2-(((1-(trifluoromethyl)cyclopropyl)methyl)amino)-3,4-dihydroquinazolin-8-yl)ethyl)amino)-N-(methylsulfonyl) picolinamide]	0.25 to 0.5	≥ 1	1 to 5	0.25 to 0.5
Cc1cc([C@@H](C)Nc2ccc(Cl)nc2C(=O)NS(C)(=O)=O)c2nc(N3CCCC3)n(C)c(=O)c2c1 [Compound 16]	0.25 to 0.5	≥ 1	1 to 5	0.25 to 0.5
Cc1cc([C@@H](C)Nc2ccc(Cl)nc2C(=O)NS(C)(=O)=O)c2nc(OCC3CC3)n(C)c(=O)c2c1 [Compound 51, (R)-6-chloro-3-((1-(2-(cyclopropylmethoxy)-3,6-dimethyl-4-oxo-3,4-dihydroquinazolin-8-yl)ethyl)amino)-N-(methylsulfonyl) picolinamide]	< 0.25	≥ 1	0.5 to 1	< 0.1
Cc1cc([C@@H](C)Nc2ccc(Cl)nc2C(=O)NS(C)(=O)=O)c2nc(N3Cc4cnn(CC(F)(F)F)c4C3)n(C)c(=O)c2c1 [Compound 53, (R)-6-chloro-3-((1-(3,6-dimethyl-4-oxo-2-(1-(2,2,2-trifluoroethyl)-4,6-dihydropyrrolo[3,4-c]pyrazol-5(1H)-yl)-3,4-dihydroquinazolin-8-yl)ethyl)amino)-N-(methylsulfonyl) picolinamide]	< 0.25	≥ 1	1 to 5	0.1 to 0.25
C[C@@H](Nc1cccnc1C(=O)NS(C)(=O)=O)c1cccc2c(=O)n(C)c(N3Cc4ccc(F)cc4C3)nc12 [Compound 59, (R)-3-((1-(2-(5-fluoroisoindolin-2-yl)-3-methyl-4-oxo-3,4-dihydroquinazolin-8-yl)ethyl)amino)-N-(methylsulfonyl) picolinamide]	1 to 5	≥ 1	≥ 5	≥ 1
Cc1cc([C@@H](C)Nc2ccc(Cl)nc2C(=O)NS(C)(=O)=O)c2nc(-c3cnc(C)nc3)n(C)c(=O)c2c1 [Compound 86, (R)-6-chloro-3-((1-(3,6-dimethyl-2-(2-methylpyrimidin-5-yl)-4-oxo-3,4-dihydroquinazolin-8-yl)ethyl)amino)-N-(methylsulfonyl) picolinamide]	0.5 to 1	≥ 1	1 to 5	≥ 1
Cc1cc([C@@H](C)Nc2ccc(Cl)nc2S(=O)(=O)NC(=O)N(C)C)c2nc(N3Cc4ccc(F)cc4C3)n(C)c(=O)c2c1 [Compound 71, (R)-6-chloro-N-(dimethylcarb-amoyl)-3-((1-(2-(5-fluoroisoindolin-2-yl)-3,6-dimethyl-4-oxo-3,4-dihydroquinazolin-8-yl)ethyl)amino)pyridine-2-sulfonamide]	1 to 5	≥ 1	≥ 5	≥ 1
Cc1cc([C@@H](C)Nc2ccc(Cl)nc2S(N)(=O)=O)c2nc(N3Cc4ccc(F)cc4C3)n(C)c(=O)c2c1 [Compound 76, (R)-6-chloro-3-((1-(2-(5-fluoroisoindolin-2-yl)-3,6-dimethyl-4-oxo-3,4-dihydroquinazolin-8-yl)ethyl)amino)pyridine-2-sulfonamide]	0.25 to 0.5	≥ 1	1 to 5	< 0.1
Cc1cc([C@@H](C)Nc2ccc(Cl)nc2C(=O)NS(C)(=O)=O)c2nc(N(C)C34CC(C3)C4)n(C)c(=O)c2c1 [Compound 13, (R)-3-((1-(2-(bicyclo[1.1.1]pentan-1-yl(methyl)amino)-3,6-dimethyl-4-oxo-3,4-dihydroquinazolin-8-yl)ethyl)amino)-6-chloro-N-(methylsulfonyl) picolinamide]	0.25 to 0.5	≥ 1	1 to 5	0.5 to 1
Cc1cc([C@@H](C)Nc2cc(C)c(F)nc2C(=O)NS(C)(=O)=O)c2nc(N3Cc4ccc(F)cc4C3)n(C)c(=O)c2c1 [Compound 69, (R)-6-fluoro-3-((1-(2-(5-fluoro-isoindolin-2-yl)-3,6-dimethyl-4-oxo-3,4-dihydroquinazolin-8-yl)ethyl)amino)-5-methyl-N-(methylsulfonyl)picolinamide]	1 to 5	≥ 1	≥ 5	≥ 1
